Assay results as given in patent publication US20260242404A1, “INTERGLYCAN ESTERS OF SUCROSE DICARBOXYLATE AND FRUCTOFURANURONATE, PROCESS FOR THE MANUFACTURE THEREOF, AND USE THEREOF AS A HYPOGLYCEMIC SLOW SUGAR” (priority 2022, published 2026).

Assays:
[1] = test system: blood sugar (glucose levels in the blood); assay: Glycemic index by oral induced hyperglycemia protocol (HGPVO / OGTT); assay type: in vivo; conditions: analyses repeated on two subjects, traditional commercial white sugar as control (FIG. 9)
HbA1c = HbA1c level calculated from average blood sugar level; assay type: in vivo; conditions: HbA1C 7% = 1.5 g/L average blood sugar, 1% HbA1C = 0.30 g/litre
Excerpt: Its consumption is therefore intended for healthy subjects and also for type 2 diabetics. […] For the new natural white granulated or powdered slow sugar of this invention the following result is obtained: [formula] For traditional white commercial sugar and for comparison purposes we obtain the following result: [formula]

Question: Which results are given for `OC[C@H]1O[C@@](CO)(O[C@H]2O[C@H](CO)[C@@H](O)[C@H](O)[C@H]2O)[C@@H](O)[C@@H]1O` [commercial white natural sugar, sucrose]?
Answer: glycemic index, in words [1]: very high; increases HbA1c level by (HbA1c): 9.2%
